Measurements as given in ChEMBL document CHEMBL4813966, “Discovery of 3,6-disubstutited-imidazo[1,2-a]pyridine derivatives as a new class of CLK1 inhibitors” (Bioorg Med Chem Lett, 2021).
Calls of active or inactive are those of the source. No cut-off for these calls is given here.

Key:
[1] = molecular target: T1, Dual specificity protein kinase CLK1 (Homo sapiens, UniProt P49759); experiment: Inhibition of recombinant human CLK1 (130 to end residues) using ERMRPRKRQGSVR as substrate incubated for 40 mins in presence of [gamma-33ATP] by scintillation counting based radiometry assay
Target sequence in this assay (P49759 whole entry): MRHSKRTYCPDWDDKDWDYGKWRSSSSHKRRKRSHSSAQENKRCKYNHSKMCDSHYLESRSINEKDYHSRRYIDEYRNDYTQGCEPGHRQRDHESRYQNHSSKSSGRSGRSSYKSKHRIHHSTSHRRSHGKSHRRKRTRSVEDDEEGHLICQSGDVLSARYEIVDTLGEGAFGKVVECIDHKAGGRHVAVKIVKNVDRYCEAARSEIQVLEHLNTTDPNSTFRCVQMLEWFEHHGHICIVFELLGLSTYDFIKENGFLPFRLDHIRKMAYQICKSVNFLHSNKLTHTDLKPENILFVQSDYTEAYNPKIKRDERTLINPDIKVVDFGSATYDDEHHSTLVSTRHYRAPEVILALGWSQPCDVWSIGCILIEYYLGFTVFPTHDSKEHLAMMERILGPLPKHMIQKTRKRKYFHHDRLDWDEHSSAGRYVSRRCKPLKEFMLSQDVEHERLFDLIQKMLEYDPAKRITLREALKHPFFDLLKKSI

SK-OV-3 [2] = experiment: Induction of autophagy in human SKOV-3 cells transfected with Ad-mRFP-GFP-LC3 assessed as induction of autophagosomes formation by measuring increase in number of yellow LC3 puncta at 0.1 uM measured after 24 hrs by confocal microscopic analysis; type: functional, cell-based
[3] = molecular target: Dual specificity tyrosine-phosphorylation-regulated kinase 1B (Homo sapiens, UniProt Q9Y463); experiment: Inhibition of recombinant full length human DYRK1B using RRRFRPASPLRGPPK as substrate incubated for 40 mins in presence of [gamma-33ATP] by scintillation counting based radiometry assay
[4] = molecular target: T1, Dual specificity protein kinase CLK1; experiment: Inhibition of CLK1 in human SKOV-3 cells assessed as redistribution of SR protein from nucleoplasm to nuclear speckles at 0.1 uM after 24 hrs by immunofluorescence assay; type: cell-based; details: SK-OV-3
Target sequence in this assay (P49759 whole entry, looked up): as the sequence (P49759 whole entry) above

SK-OV-3 [5] = experiment: Induction of autophagic flux in human SKOV-3 cells assessed as LC3-II protein level at 10 uM after 24 hrs in presence of V-ATPase inhibitor bafilomycin-A1 by Western blot analysis; type: functional, cell-based
[6] = molecular target: Dual specificity tyrosine-phosphorylation-regulated kinase 1A (Homo sapiens, UniProt Q13627); experiment: Inhibition of recombinant full length human DYRK1A using RRRFRPASPLRGPPK as substrate incubated for 40 mins in presence of [gamma-33ATP] by scintillation counting based radiometry assay
[7] = molecular target: Dual specificity protein kinase CLK3 (Homo sapiens, UniProt P49761); experiment: Inhibition of recombinant full length human CLK3 using ERMRPRKRQGSVR as substrate incubated for 40 mins in presence of [gamma-33ATP] by scintillation counting based radiometry assay
[8] = molecular target: Dual specificity protein kinase CLK2 (Homo sapiens, UniProt P49760); experiment: Inhibition of recombinant human CLK2 (138 to end residues) using YRRAAVPPSPSLSRHSSPHQS(p)EDEEE as substrate incubated for 40 mins in presence of [gamma-33ATP] by scintillation counting based radiometry assay
SK-OV-3 [9] = experiment: Induction of autophagy in human SKOV-3 cells assessed as increase in LC3-II to LC3-I ratio incubated for 24 hrs by Western blot analysis; type: functional, cell-based; details: dose 0.33-30 µM
SK-OV-3 [10] = experiment: Induction of autophagic flux in human SKOV-3 cells assessed as SQSTM1/p62 protein level at 10 uM after 24 hrs in presence of V-ATPase inhibitor bafilomycin-A1 by Western blot analysis; type: functional, cell-based
[11] = molecular target: T1, Dual specificity protein kinase CLK1; experiment: Inhibition of CLK1 in human SKOV-3 cells assessed as decrease in SRp55 phosphorylation after 24 hrs by Western blot analysis; type: cell-based; details: SK-OV-3, dose 0.33-30 µM
Target sequence in this assay (P49759 whole entry, looked up): as the sequence (P49759 whole entry) above

SK-OV-3 [12] = experiment: Induction of autophagy in human SKOV-3 cells transfected with Ad-mRFP-GFP-LC3 assessed as induction of autolysosomes formation by measuring increase in number of red LC3 puncta at 0.1 uM measured after 24 hrs by confocal microscopic analysis; type: functional, cell-based
SK-OV-3 [13] = experiment: Induction of autophagy in human SKOV-3 cells assessed as increase in LC3-II protein level incubated for 24 hrs by Western blot analysis; type: functional, cell-based; details: dose 0.33-30 µM
SK-OV-3 [14] = experiment: Induction of autophagy in human SKOV-3 cells assessed as degradation of SQSTM1/p62 at 0.33 to 30 uM measured after 24 hrs by Western blot analysis; type: functional, cell-based; details: dose 0.33-30 µM
[15] = molecular target: Dual specificity protein kinase CLK4 (Homo sapiens, UniProt Q9HAZ1); experiment: Inhibition of recombinant human CLK4 (128 to end residues) using YRRAAVPPSPSLSRHSSPHQS(p)EDEEE as substrate incubated for 40 mins in presence of [gamma-33ATP] by scintillation counting based radiometry assay
[16] = molecular target: T1, Dual specificity protein kinase CLK1; experiment: Inhibition of CLK1 in human SKOV-3 cells assessed as decrease in SRp75 phosphorylation after 24 hrs by Western blot analysis; type: cell-based; details: SK-OV-3, dose 0.33-30 µM
Target sequence in this assay (P49759 whole entry, looked up): as the sequence (P49759 whole entry) above

Sequence of Dual specificity protein kinase CLK3 (P49761 whole entry): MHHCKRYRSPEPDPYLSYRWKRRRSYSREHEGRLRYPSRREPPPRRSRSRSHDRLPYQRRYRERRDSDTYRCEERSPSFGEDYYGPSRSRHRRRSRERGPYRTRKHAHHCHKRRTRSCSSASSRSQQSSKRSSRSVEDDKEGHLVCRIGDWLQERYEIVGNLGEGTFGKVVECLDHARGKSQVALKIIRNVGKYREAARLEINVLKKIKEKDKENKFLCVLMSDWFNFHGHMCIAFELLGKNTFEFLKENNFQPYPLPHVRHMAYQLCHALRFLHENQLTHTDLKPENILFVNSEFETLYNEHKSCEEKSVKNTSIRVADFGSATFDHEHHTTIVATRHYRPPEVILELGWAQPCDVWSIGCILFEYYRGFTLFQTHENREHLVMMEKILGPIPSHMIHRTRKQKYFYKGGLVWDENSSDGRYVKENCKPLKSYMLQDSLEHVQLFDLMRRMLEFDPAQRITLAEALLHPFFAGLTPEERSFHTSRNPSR
Sequence of Dual specificity protein kinase CLK4 (Q9HAZ1 whole entry): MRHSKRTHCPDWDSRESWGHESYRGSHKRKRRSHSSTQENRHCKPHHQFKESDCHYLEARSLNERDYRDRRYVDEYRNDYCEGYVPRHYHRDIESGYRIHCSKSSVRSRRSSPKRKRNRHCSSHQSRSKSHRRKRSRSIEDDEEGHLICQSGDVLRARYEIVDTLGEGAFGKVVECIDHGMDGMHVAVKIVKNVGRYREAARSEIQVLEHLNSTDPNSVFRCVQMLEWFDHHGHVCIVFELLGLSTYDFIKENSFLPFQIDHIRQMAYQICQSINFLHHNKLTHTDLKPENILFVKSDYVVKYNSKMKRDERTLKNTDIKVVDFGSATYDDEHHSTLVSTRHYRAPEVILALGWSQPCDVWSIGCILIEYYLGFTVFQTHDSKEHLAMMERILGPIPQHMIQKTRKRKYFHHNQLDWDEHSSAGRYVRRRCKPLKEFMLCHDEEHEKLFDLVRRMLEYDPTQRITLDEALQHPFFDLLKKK
Sequence of Dual specificity tyrosine-phosphorylation-regulated kinase 1B (Q9Y463 whole entry): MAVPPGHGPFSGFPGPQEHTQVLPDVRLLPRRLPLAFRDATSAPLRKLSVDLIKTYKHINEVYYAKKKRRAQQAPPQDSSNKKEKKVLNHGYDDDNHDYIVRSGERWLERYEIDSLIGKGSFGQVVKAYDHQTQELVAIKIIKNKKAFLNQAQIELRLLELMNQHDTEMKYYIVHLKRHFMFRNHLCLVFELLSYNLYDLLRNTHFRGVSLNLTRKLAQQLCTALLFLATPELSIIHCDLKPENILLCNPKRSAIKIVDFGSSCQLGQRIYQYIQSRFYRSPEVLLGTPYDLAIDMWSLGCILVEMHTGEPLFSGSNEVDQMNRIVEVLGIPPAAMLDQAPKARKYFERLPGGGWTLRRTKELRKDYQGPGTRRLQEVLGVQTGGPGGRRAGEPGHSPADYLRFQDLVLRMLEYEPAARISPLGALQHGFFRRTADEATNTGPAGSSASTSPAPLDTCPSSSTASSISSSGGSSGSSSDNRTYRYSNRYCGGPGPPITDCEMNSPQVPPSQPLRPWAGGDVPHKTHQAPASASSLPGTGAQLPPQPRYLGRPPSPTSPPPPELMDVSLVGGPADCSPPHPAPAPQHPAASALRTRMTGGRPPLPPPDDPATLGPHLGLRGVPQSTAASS
Sequence of Dual specificity protein kinase CLK2 (P49760 whole entry): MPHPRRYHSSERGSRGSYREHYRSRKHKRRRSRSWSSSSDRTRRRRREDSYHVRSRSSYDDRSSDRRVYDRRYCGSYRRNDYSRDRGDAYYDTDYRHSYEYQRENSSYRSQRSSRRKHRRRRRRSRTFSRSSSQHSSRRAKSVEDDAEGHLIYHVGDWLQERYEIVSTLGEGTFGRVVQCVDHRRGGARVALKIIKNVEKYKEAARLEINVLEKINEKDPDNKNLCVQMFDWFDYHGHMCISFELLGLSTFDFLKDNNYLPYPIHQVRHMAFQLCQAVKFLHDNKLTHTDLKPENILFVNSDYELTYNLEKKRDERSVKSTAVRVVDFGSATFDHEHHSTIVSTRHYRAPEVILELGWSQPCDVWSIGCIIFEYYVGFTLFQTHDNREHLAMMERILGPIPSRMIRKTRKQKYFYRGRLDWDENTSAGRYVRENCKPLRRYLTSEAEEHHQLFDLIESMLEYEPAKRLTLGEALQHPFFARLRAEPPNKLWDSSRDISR

Compound | IC50 [1] [nM] | other results
COc1ccc(CNC(=O)c2cnc3ccc(-c4ccc5ccccc5c4)cn23)cc1 | > 10000 | 
C[C@H](NC(=O)c1cnc2ccc(-c3ccc4ncccc4c3)cn12)c1ccccc1 | 52 | 
COc1ccc([C@@H](C)NC(=O)c2cnc3ccc(-c4cnn(C)c4)cn23)cc1 | 8 | 
COc1ccc(NC(=O)c2cnc3ccc(-c4cnn(C)c4)cn23)cc1 | 7 | 
Cn1cc(-c2ccc3ncc(C(=O)NCc4ccccc4)n3c2)cn1 | 12 | 
COc1ccc(CNC(=O)c2cnc3ccc(-c4ccc5ncccc5c4)cn23)cc1 | 4 | Activity (SK-OV-3 [2]): Active; IC50 [3]: 148 nM; inhibition [4]: Active; Activity (SK-OV-3 [5]): inactive; IC50 [6]: 10 nM; IC50 [7]: > 10000 nM; IC50 [8]: 50 nM; Activity (SK-OV-3 [9]): Dose-Dependent Effect; Activity (SK-OV-3 [10]): inactive; inhibition [11]: Dose-Dependent Effect; Activity (SK-OV-3 [12]): Active; Activity (SK-OV-3 [13]): Dose-Dependent Effect; Activity (SK-OV-3 [14]): Active; IC50 [15]: 17 nM; inhibition [16]: Dose-Dependent Effect
COc1cccc(CNC(=O)c2cnc3ccc(-c4cnn(C)c4)cn23)c1 | 11 | 
C[C@H](NC(=O)c1cnc2ccc(-c3cnn(C)c3)cn12)c1ccccc1 | 296 | 
CNC(=O)c1cnc2ccc(-c3cnn(C)c3)cn12 | 23 | 
COc1ccc(CNC(=O)c2cnc3ccc(-c4ccncc4)cn23)cc1 | 13 | 
COc1ccc([C@@H](C)NC(=O)c2cnc3ccc(-c4ccc5ncccc5c4)cn23)cc1 | 6 | 
COc1ccc([C@H](C)NC(=O)c2cnc3ccc(-c4ccc5ncccc5c4)cn23)cc1 | 44 | 
COc1ccc(CNC(=O)c2cnc3ccc(-c4ccc5ocnc5c4)cn23)cc1 | 122 | 
C[C@@H](NC(=O)c1cnc2ccc(-c3ccc4ncccc4c3)cn12)c1ccccc1 | 6 | 
COc1ccc(CNC(=O)c2cnc3ccc(-c4c(C)noc4C)cn23)cc1 | > 10000 | 
COc1ccc(NNC(=O)c2cnc3ccc(-c4ccc5ncccc5c4)cn23)cc1 | 5 | 
COc1ccc([C@H](C)NC(=O)c2cnc3ccc(-c4cnn(C)c4)cn23)cc1 | 809 | 
C[C@@H](NC(=O)c1cnc2ccc(-c3cnn(C)c3)cn12)c1ccccc1 | 14 | 
Cn1cc(-c2ccc3ncc(C(=O)NCc4ccc(Cl)cc4)n3c2)cn1 | 14 | 
C[C@@H](NC(=O)c1cnc2ccc(-c3cnn(C)c3)cn12)c1ccc(Cl)cc1 | 11 | 
CC(C)Oc1ccc(CNC(=O)c2cnc3ccc(-c4cnn(C)c4)cn23)cc1 | 8 | 
C[C@H](NC(=O)c1cnc2ccc(-c3cnn(C)c3)cn12)c1ccc(Cl)cc1 | 399 | 
COc1ccc(CNC(=O)c2cnc3ccc(-c4cnn(C)c4)cn23)cc1 | 6 | 
